Source: patent EP0034752A1, “Phenoxyalkane derivative and processes for preparing same” (Tanabe Seiyaku Co., Ltd., priority 1980, dated 1981)

Columns and labels:
[1] = tested on: intracranial pressure in rats; test: Effect of i.v. injection of test compounds on intracranial pressure in rats; assay type: in vivo; settings: for Change (%) in intra-cranial pressure: dose one mg/kg, i.v. infusion in 5 w/v % mannitol, anesthetized male SD-rats, value before administration = 100
Protocol: (Effect of i.v., injection of test compounds on intracranial pressure in rats)
Male SD-rats weighing 500 to 800 g (each group consisting of 5 rats) were anesthetized with urethane. A solution of a test compound in an aqueous 5 w/v % mannitol solution was infused via the femoral vein at a rate of 0.2 ml/kg/minute for 20 minutes (when the test compound was used in the form of free base, said solution was prepared by dissolving it in an aqueous 5 w/v % mannitol solution with the aid of 0.5 N hydrochloric acid). Intracranial pressure (i.e., cerebrospinal fluid pressure in the cisterna magna) was continuously monitored via a canula introduced in the cisterna magna. The canula was connected to a transducer, and recording were made on graph paper. The effect of the test compound on-the intracranial pressure was estimated in terms of the increase or decrease in intracranial pressure, which was calculated in accordance with the following formula: […]

[2] = tested on: central nervous system in mice; test: Anti-apomorphine activity (cage climbing) in mice; assay type: in vivo; settings: Mus musculus, ip, 0.5 h; i.p., male mice; apomorphine hydrochloride 2.5 mg/kg s.c. 30 minutes later; dose decreasing number of climbing mice by 50 %; read-out: Effect on central nervous system (ED50, mg/kg) Anti-apomorphine activity
Protocol: (§1) The effect of a test compound on central nervous system was examined by the following methods.
(3) Anti-apomorphine activity:
A solution or suspension of a test compound in water or an aqueous carboxymethylcellulose solution was administered intraperitoneally to male mice weighing 18 to 20 g (each group consisting of 5 mice). Thirty minutes after administration of the test compound, apomorphine hydrochloride (2.5 mg/kg) was administered subcutaneously to the mice, and the number of the mice which could climb a cage was examined. The 50 % effective dose (ED50) of the test compound was estimated in terms of a dose which is necessary to decrease the number of the medicated mice which could climb the cage by 50 % of the number of a control group (i.e., non-medicated mice) which could climb the cage.

[3] = tested on: central nervous system in mice; test: Effect on spontaneous motor activity in mice; assay type: in vivo; settings: Mus musculus, ip, 0.5 h; i.p., male mice; activity measured 30 minutes after administration; dose decreasing activity by 50 % of control; read-out: Effect on central nervous system (ED50, mg/kg) spontaneous mortor activity
Protocol: as §1
(1) Effect on spontaneous mortor activity:
A solution or suspension of a test compound in water or an aqueous carboxymethylcellulose solution was administered intraperitoneally to male mice weighing 18 to 20 g (each group consisting of 5 mice). Thirty minutes after administration of the test compound, the spontaneous mortor activity of the mice was measured with an animex activity meter for 5 minutes. The 50 % effective dose (ED50) of the test compound was estimated in terms of a dose which is necessary to decrease the mortor activity of the medicated mice by 50 % of that of a control group (i.e., non-medicated mice).

[4] = tested on: central nervous system in mice; test: Effect on sodium hexobarbital-induced anesthesia in mice; assay type: in vivo; settings: Mus musculus, ip, 0.5 h, male mice; sodium hexobarbital 100 mg/kg i.p. 30 minutes later; dose prolonging sleeping time twice that of control
Protocol: as §1
(2) Effect on sodium hexobarbital-induced anesthesia:
A solution or suspension of a test compound in water or an aqueous carboxymethylcellulose solution was administered intraperitoneally to male mice weighing 18 to 20 g (each group consisting of 5 mice). Thirty minutes after intraperitoneal administration of the test compound, sodium hexobarbital (100 mg/kg) was administered intraperitoneally to the mice, and the sleeping time was measured as the interval between the loss and recovery of the righting reflex. The 50.% effective dose (ED50) of the test compound was estimated in terms of dose which is necessary to prolong the sleeping time of the medicated mice twice as long as that of a control group (i.e., non-medicated mice).

[5] = Maximum tolerated dose, i.p.; design: species or system mice; settings: mouse, in vivo, ip
[6] = 40 minutes after administration
[7] = 60 minutes after administration
[8] = 120 minutes after administration

Structure (SMILES) | decrease in the intracranial pressure ([1]; 40 minutes after administration, dose 1 mg/kg, infused via the femoral vein of rats in 5 w/v % mannitol for 20 minutes) | Change (%) in intra-cranial pressure [1, 6] [%] | Change (%) in intra-cranial pressure [1, 7] [%] | Change (%) in intra-cranial pressure [1, 8] [%] | ED50 [2] [mg/kg] | ED50 [3] [mg/kg] | ED50 [4] [mg/kg] | MTD [5] [mg/kg]
CC(=O)Nc1ccc(COCCCN2CCN(c3ccccc3)CC2)cc1 [1-(4-acetamidobenzyloxy)-3-(4-phenylpiperazino)-n-propane] | about 23% | 77.0 | 83.1 | 97.9 |  |  |  | 
COc1cc(NC(C)=O)ccc1OCCCN1CCC(O)(c2ccc(Cl)cc2)CC1 [1-(4-acetamido-2-methoxyphenoxy)-3-[4-(4-chlorophenyl)-4-hydroxy-piperidino]-n-propane] |  | 94.2 | 95.4 | 90.7 |  |  |  | 
COc1cc(NC(C)=O)ccc1OCC(C)CN1CCN(c2ccccc2)CC1 (centres unmarked) [1-(4-acetamido-2-methoxyphenoxy)-3-(4-phenylpiperazino)-2-methyl-n-propane] |  | 66.4 | 73.8 | 83.8 |  |  |  | 
COc1cc(NC(C)=O)ccc1COCCCN1CCN(c2ccccc2)CC1 [1-(4-acetamido-2-methoxybenzyloxy)-3-(4-phenylpiperazino)-n-propane] |  |  |  |  | 7 | 5 | 10 | 100
